Among the test systems are SK-OV-3; OVCAR-5; SW-620; NCI-H460; HCT-116; MOLT-4; M14; HCT-15; RXF 393; NCI-H522; SNB-19; IGROV-1; OVCAR-3; DMS-273; HT-29; NCI-H23; A498; CCRF-CEM; COLO 205; NCI/ADR-RES.
Common to all, as to experiment: NCI-60 cell line screen, 48 h

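Interpolation was linear, between the two tested concentrations surrounding the appropriate level; five concentrations were tested over 48 hours in 96-well plates. Abbreviation: GI50, concentration required for 50% inhibition of growth.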 Activity calls are given as the source filed them. Cut-off read from the data, not from the text of the source: active = GI50 up to about 1.1 µM and inactive = higher. Where only a bound is given, the exact number is not on record here.

The text below walks through data of ChEMBL document CHEMBL1201862, “PubChem BioAssay data set” (2004).

As to `COc1ccc(C(=O)Cc2ccc(Cl)cc2)cc1OC`, the GI50 in the assay with SK-OV-3, in the assay with OVCAR-5, in the assay on SW-620, in the assay with NCI-H460, in the assay on HCT-116 and in the assay with MOLT-4 was > 100 µM (inactive) throughout. In addition, the GI50 in the assay on M14 is > 100 µM (inactive); in the assay with HCT-15, more than 100 µM; in the assay with RXF 393 it was > 100 µM (inactive); in the assay on NCI-H522, 64.9 µM (inactive); with SNB-19, > 100 µM (inactive); in the assay on IGROV-1, > 100 µM (inactive). The GI50 in the assay on OVCAR-3, with DMS-273, in the assay with HT-29, with NCI-H23, in the assay with A498 and in the assay with CCRF-CEM was > 100 µM (inactive) in each case.
On to `CN(C)CCNC(=O)c1cccc2[nH]c(-c3ccc(Cl)cc3)nc12`, for which the GI50 with SK-OV-3 is 11.4 µM (inactive); in the assay with OVCAR-5, 10.3 µM (inactive); with SW-620, 3.96 µM (inactive); in the assay with NCI-H460, 3.12 µM (inactive); in the assay with HCT-116, 3.28 µM (inactive); with MOLT-4, 2.03 µM (inactive). Also, the GI50 in the assay on COLO 205 is 2.97 µM (inactive); in the assay on HCT-15, 4.99 µM; in the assay on RXF 393 it was 8.57 µM (inactive); in the assay on NCI/ADR-RES, 5.42 µM (inactive); in the assay on NCI-H522, 6.14 µM (inactive); in the assay on SNB-19, 7.87 µM (inactive). Further, the GI50 in the assay on IGROV-1 was 7.35 µM (inactive); in the assay on OVCAR-3, 10.2 µM (inactive); with DMS-273, 4.03 µM (inactive); in the assay on HT-29, 4.24 µM (inactive); with NCI-H23 it was 7.41 µM (inactive); with A498, 10.7 µM (inactive). In addition, the GI50 with CCRF-CEM was 6.21 µM (inactive).
As to `Cc1cc(Cl)ccc1NC1=NC(=O)C(CC(=O)Nc2cccc(Cl)c2)S1` (stereo not drawn), the GI50 in the assay on SK-OV-3 was 42.5 µM (inactive); in the assay with OVCAR-5, 16.1 µM (inactive); with SW-620, 67 µM (inactive); in the assay on NCI-H460 it was 62.2 µM (inactive); in the assay with HCT-116, 24.2 µM (inactive); with COLO 205 it was 72.1 µM (inactive). In addition, the GI50 with M14 is 44.7 µM (inactive); with HCT-15, 32.1 µM; with RXF 393, 12.1 µM (inactive); in the assay on NCI-H522, 26.5 µM (inactive); in the assay with SNB-19 it was > 100 µM (inactive); in the assay with IGROV-1, 40.3 µM (inactive). Besides, the GI50 in the assay on OVCAR-3 was 43 µM (inactive); with DMS-273, 29.8 µM (inactive); with HT-29 it was 20.5 µM (inactive); in the assay with NCI-H23, 12.9 µM (inactive); with A498, 23.8 µM (inactive); in the assay with CCRF-CEM, 22.6 µM (inactive).
With `CC(=O)NNc1nc(C)c(C(=O)NNC(=O)C(=O)Nc2cccc(C(C)=O)c2)s1`, the GI50 in the assay with SK-OV-3 is 18.3 µM (inactive); with OVCAR-5, > 100 µM (inactive); with SW-620, 39.5 µM (inactive); in the assay with NCI-H460 it was 12.7 µM (inactive); in the assay on HCT-116, 31.8 µM (inactive); in the assay with MOLT-4 it was 45.3 µM (inactive). Also, the GI50 was 53.6 µM (inactive) in the assay with COLO 205; 21.2 µM in the assay with HCT-15; 16.5 µM (inactive) in the assay on RXF 393; 15.2 µM (inactive) in the assay on NCI-H522; 41 µM (inactive) in the assay with SNB-19; 26.5 µM (inactive) with IGROV-1. The GI50 in the assay on DMS-273 was 34.8 µM (inactive); in the assay on HT-29, 50.2 µM (inactive); in the assay on NCI-H23 it was 17.5 µM (inactive); in the assay with A498 it was 20.7 µM (inactive); in the assay with CCRF-CEM, 23.2 µM (inactive).
In the case of `CC(NCCS(=O)(=O)O)C(=O)O` (stereo not drawn), the GI50 in the assay with SK-OV-3, with OVCAR-5, in the assay with SW-620, with NCI-H460, with HCT-116 and with MOLT-4 was > 100 µM (inactive) in each case. Besides, the GI50 is > 100 µM (inactive) in the assay on COLO 205; more than 100 µM in the assay on HCT-15; > 100 µM (inactive) in the assay on RXF 393; > 100 µM (inactive) in the assay on NCI/ADR-RES; > 100 µM (inactive) with NCI-H522; > 100 µM (inactive) in the assay with SNB-19. Also, the GI50 in the assay with IGROV-1 is > 100 µM (inactive); in the assay on OVCAR-3 it was > 45.6 µM (inactive); in the assay on DMS-273, > 100 µM (inactive); in the assay with HT-29, > 100 µM (inactive); in the assay with NCI-H23, > 100 µM (inactive); with A498, > 77.3 µM (inactive). Also, the GI50 with CCRF-CEM was > 100 µM (inactive).
In the case of `C=CCN(N=O)C(=O)N(CCC)CCCCC(NC(C)=O)C(=O)NCc1ccccc1` (stereo not drawn), the GI50 with SK-OV-3 is > 100 µM (inactive); in the assay with OVCAR-5, > 100 µM (inactive); with SW-620 it was > 100 µM (inactive); in the assay on NCI-H460 it was > 100 µM (inactive); with MOLT-4 it was 22.5 µM (inactive); in the assay on COLO 205, > 100 µM (inactive). Further, the GI50 with M14 is > 100 µM (inactive); with HCT-15, more than 100 µM; in the assay with RXF 393, 38.1 µM (inactive); with NCI-H522, 73.6 µM (inactive); in the assay on SNB-19, > 100 µM (inactive); with IGROV-1, > 100 µM (inactive). Further, the GI50 in the assay with OVCAR-3 is 75.5 µM (inactive); in the assay with DMS-273, > 100 µM (inactive); with HT-29, 29.2 µM (inactive); in the assay with NCI-H23, > 100 µM (inactive); in the assay on A498, > 100 µM (inactive); in the assay with CCRF-CEM, 33.7 µM (inactive).
Regarding `COC(=O)C1CCC(=O)N1C(=O)Cc1ccc(OC)cc1` (stereo not drawn), the GI50 in the assay with SK-OV-3, in the assay on OVCAR-5, with SW-620, in the assay with NCI-H460, in the assay with HCT-116 and in the assay with COLO 205 was > 100 µM (inactive) throughout. Also, the GI50 with M14 was > 100 µM (inactive); in the assay on HCT-15, more than 100 µM; in the assay on NCI-H522, > 100 µM (inactive); with SNB-19, > 100 µM (inactive); with IGROV-1, > 100 µM (inactive); with OVCAR-3 it was > 100 µM (inactive). In addition, the GI50 in the assay on DMS-273, with HT-29, in the assay with NCI-H23 and with A498 was > 100 µM (inactive) in each case.
On to `CC(C)C1NC(=O)CC(c2ccccc2)N(N=O)C1c1ccccc1` (stereo not drawn), for which the GI50 is > 61.1 µM (inactive) with SK-OV-3; > 100 µM (inactive) in the assay with OVCAR-5; > 100 µM (inactive) with SW-620; > 100 µM (inactive) in the assay on NCI-H460; > 100 µM (inactive) in the assay on HCT-116; > 100 µM (inactive) in the assay on MOLT-4. Besides, the GI50 in the assay with COLO 205 is > 100 µM (inactive); in the assay on HCT-15, more than 100 µM; in the assay with RXF 393 it was > 100 µM (inactive); in the assay with NCI/ADR-RES, > 100 µM (inactive); with NCI-H522 it was 37.5 µM (inactive); with SNB-19, > 100 µM (inactive). For the same molecule, the GI50 with IGROV-1 was > 100 µM (inactive); in the assay on OVCAR-3, > 68.9 µM (inactive); with DMS-273, > 100 µM (inactive); with HT-29, > 100 µM (inactive); with NCI-H23 it was > 80.9 µM (inactive); in the assay on A498, > 100 µM (inactive). Further, in the assay on CCRF-CEM, the GI50 is > 100 µM (inactive).
Regarding `c1ccc(COC2(OCc3ccccc3)CC3OC2C2NN=NC32)cc1` (stereo not drawn), the GI50 in the assay with SK-OV-3 was > 100 µM (inactive); with OVCAR-5 it was > 100 µM (inactive); with SW-620, 12.5 µM (inactive); with NCI-H460 it was 46.1 µM (inactive); in the assay with MOLT-4 it was 12.5 µM (inactive); in the assay on COLO 205, 37.7 µM (inactive). Also, the GI50 is 18.5 µM (inactive) in the assay on M14; 26 µM in the assay with HCT-15; 41.7 µM (inactive) in the assay on RXF 393; 28.6 µM (inactive) in the assay on IGROV-1; 18.3 µM (inactive) with OVCAR-3; 21.2 µM (inactive) in the assay on DMS-273. Besides, the GI50 was 20.8 µM (inactive) in the assay with HT-29, 17.5 µM (inactive) with NCI-H23, > 100 µM (inactive) in the assay with A498 and 11.3 µM (inactive) in the assay with CCRF-CEM.
Take `CC1(C)COC(/C=C/C2=NC(C)(C)CO2)=N1`: the GI50 was > 100 µM (inactive) in the assay on SK-OV-3; 20.4 µM (inactive) in the assay with OVCAR-5; 12.7 µM (inactive) in the assay on SW-620; 67 µM (inactive) in the assay on NCI-H460; 10.6 µM (inactive) in the assay with HCT-116; 12.6 µM (inactive) in the assay on MOLT-4. In addition, the GI50 in the assay with COLO 205 was 14.4 µM (inactive); with M14 it was 14.7 µM (inactive); in the assay with HCT-15 it was 15.1 µM; in the assay with RXF 393 it was 16.3 µM (inactive); in the assay with NCI/ADR-RES, 26.1 µM (inactive); with NCI-H522, 2.77 µM (inactive). The GI50 is 68.5 µM (inactive) in the assay on SNB-19; 18.5 µM (inactive) in the assay on IGROV-1; 12.4 µM (inactive) with OVCAR-3; 21.2 µM (inactive) in the assay on HT-29; 23.2 µM (inactive) in the assay with NCI-H23; 0.0401 µM (active) with A498. The GI50 with CCRF-CEM is 7.59 µM (inactive).
Take `O=C(O)CNS(=O)(=O)c1ccc(NC(=O)Nc2ccccc2)cc1`: the GI50 in the assay on SK-OV-3, with OVCAR-5, with SW-620, in the assay with NCI-H460, with HCT-116 and in the assay with MOLT-4 was > 100 µM (inactive) each time. Moreover, the GI50 in the assay on COLO 205 was > 100 µM (inactive); with HCT-15, more than 100 µM; in the assay with RXF 393 it was > 100 µM (inactive); in the assay with NCI/ADR-RES, > 100 µM (inactive); in the assay with NCI-H522, > 100 µM (inactive); in the assay with SNB-19 it was > 100 µM (inactive). Besides, the GI50 with IGROV-1 was > 37.6 µM (inactive); in the assay with OVCAR-3 it was > 100 µM (inactive); in the assay on DMS-273, > 100 µM (inactive); in the assay with HT-29 it was > 100 µM (inactive); in the assay on NCI-H23, > 100 µM (inactive); in the assay with A498, > 100 µM (inactive). Moreover, the GI50 with CCRF-CEM was > 100 µM (inactive).
